These are literature values, as cited in patent publication US9848955B2, “Resorbable pouches for implantable medical devices” (TYRX Inc., priority 2006, dated 2017).

The subject of the series is myofibroblast formation. The note with it: animal studies of capsular contracture with breast implants [Ajmal et al. (2003)].

For `O=S(=O)([O-])CCS.[Na+]` [Mesna, sodium 2-mercaptoethane sulfonate], the myofibroblast formation entry is reported as “diminish myofibroblast formation”.
